According to patent US20130059773A1, “COMPOUNDS FOR THE TREATMENT OF INFLAMMATION AND NEUTROPENIA” (priority 2010, published 2013):
“Also recorded” adds a separate entry of the source. Where a SMILES comes first, the peptide text is derived from it. The star is where a group is joined. Cbz = O=C(OCc1ccccc1)*

How the values were obtained:
Assay type in all cases: cell-based, human
[1] = system: neutrophils; assay: Effects of the peptides on neutrophil apoptosis (annexin V / 7-AAD flow cytometry); settings: for Early Apoptosis, Mean / Late Apoptosis, Mean / Total Apoptosis, Mean: peptide concentration = 200 μM, 16 h at 37° C.; for Early Apoptosis, Mean: percentage annexin-V positive and 7-AAD negative; for Late Apoptosis, Mean: percentage annexin-V positive and 7-AAD positive; for Total Apoptosis, Mean: percentage of cells either 7-AAD or annexin-V-positive; for Early Apoptosis / Late Apoptosis / Total Apoptosis: peptide concentration = 500 μM
Protocol: Effects of the peptides on neutrophil apoptosis. Neutrophils were isolated from the blood of healthy volunteers using polymorphoprep (Witko-Sarsat et al. 1999; Blood 94:2487-96). Physiological apoptosis of these neutrophils was then activated by incubating them at 37° C. during 16 h in RPMI culture medium complemented with 10% serum. Under these conditions, neutrophils undergo a spontaneous apoptosis which can be evaluated by measuring the phosphatidylserine externalization (Kantari et al. 2007; Blood 110:4086-95; Moriceau et al. 2009; J Immunol 182:7254-63). Phosphatidylserine was stained using a fluorochrome-coupled annexin V allowing detection of apoptotic neutrophils by flow cytometry using a Facscan (Beckton Dickinson). Neutrophils stained with annexin V express the phosphatidylserine and are recognized and phagocytosed by macrophages. Furthermore, a secondary staining with the 7AAD intercalating agent was used to indicate late apoptosis (Durant et al. 2004; J Leukocyte Biol 75:87-98). Thus, total apoptosis is measured by the percentage of cells being either 7-AAD or annexin-V-positive (the rest of the cells being considered as viable). Early apoptosis is measured by the percentages of neutrophils being both annexin-V positive and 7-AAD negative. Late apoptosis is measured by the percentages of neutrophils being both annexin-V positive and 7-AAD positive. The necrotic cells being 7AAD positive are excluded from the analysis on the basis of the data of size/granulometry by flow cytometry analysis. […]
The peptides were added to the neutrophil cells and their effect on cell apoptosis was analyzed by measuring the phosphatidylserine externalization. Phosphatidylserine was stained using a fluorochrome-coupled annexin V allowing detection of apoptotic neutrophils by flow cytometry. Neutrophils stained with annexin V express the phosphatidylserine and are recognized and phagocytosed by macrophages. Furthermore, a secondary staining with the 7AAD intercalating agent was used to indicate late apoptosis, allowing distinction between early and late apoptosis.

[2] = system: neutrophils; assay: Neutrophil apoptosis by mitochondrial depolarization after DiOC6 labeling; set-up: dose or concentration left out as unconfirmed; settings: 6 h at 37° C., peptide
Protocol: Analysis of apoptosis. Neutrophil apoptosis was triggered by incubating neutrophils at 37° C. alone (constitutive apoptosis) or with anti-Fas mAb (10 ng/ml; Beckman-Coulter) or gliotoxin ([…]; Sigma) (Ward et al. 1999, J. Biol. Chem. 274:4309-4318) for the indicated times. Neutrophil apoptosis was evaluated by phosphatidylserine externalization after annexin-V and 7-AAD labeling (Kantari et al. 2007, Blood 110:4086-4095); mitochondrial depolarization after DiOC6 labeling (Moriceau et al. 2009, J. Immuno1.182:7254-7263); caspase-3 and caspase-8 activities measured by spectrophotometry (Biovision) in neutrophil lysates. In DMF-differentiated-PLB985 cells, apoptosis was triggered by gliotoxin or by rTRAIL (10 ng/ml; RD System) (Yin et al. 2005, Int. J. Biochem. Cell Biol. 37:1696-1708) and caspase-8 and caspase-9 activities were determined after gating on CD11b^+ cells using the Caspase-Glow® assay (Promega). Apoptosis-induced chromatin condensation and DNA fragmentation were assessed, respectively, after DNA staining with the blue fluorescent dye Hoechst (5 mg/ml) and propidium-iodide staining (Goepel et al. 2004, J. Leukoc. Biol. 75:836-843). Carboxyp21 ([…], SEQ ID NO: 24) corresponding to the p21 carboxy-terminus sequence (residues 141-160) and containing a RYIRS carboxy-terminal extension to facilitate its cell entry was synthesized and purified (Genecust). […]

[3] = system: PCNA; assay: PCNA expression in neutrophils by Western blot; settings: for Effect of proteasome inhibitors on apoptosis-induced PCNA diminution: neutrophils 15 h at 37° C.
Protocol: Western blot analysis and co-immunoprecipitation experiments. Neutrophils were sonicated and cytosolic proteins were analyzed using either the PC10 mAb or the Ab5 pAb anti-PCNA according to standard immunoblot procedures (Moriceau et al. 2009, J. Immunol. 182:7254-7263). Co-immunoprecipitation experiments were performed using neutrophil cytosols obtained by cavitation (Witko-Sarsat et al. 1999, Blood 94:2487-2496). Cytosol ([…]) was mixed with […] of protein G and Ab5 pAb and incubated for 30 min at 4° C. under shaking. The sample was loaded onto a column containing Sepharose-coated magnetic beads (Milteny), washed with a stringent washing buffer (50 mM Tris, 500 mM NaCl, 1% NP-40, 0.5% Triton X-100). The column was washed twice with this buffer, twice with the same buffer except that the NaCl was 300 mM and, finally, 5 times with a hyposaline buffer (20 mM Tris pH 7.5). The sample was eluted from the column with […] 5× sample buffer and analyzed by Western blotting using different mAb to potential partners. PCNA was detected on the Western blot with the PC10 mAb and procaspases were detected with either anti-procaspase-8 (Calbiochem) mAb or mouse anti-procaspase-10 (Santa Cruz) or anti-procaspase-9 (Santa Cruz) or anti-procaspase-3 (Santa Cruz) mAbs, followed by horseradish peroxidase-conjugated anti-mouse IgG (Nordic Immunology diluted 1:5000), using the SuperSignal West Pico detection kit (Pierce).

[4] = system: neutrophils; assay: Neutrophil apoptosis/survival by phosphatidylserine externalization after annexin-V and 7-AAD labeling; settings: for Effect of proteasome inhibitors on neutrophil death: neutrophils 15 h at 37° C.
Protocol: Analysis of apoptosis. Neutrophil apoptosis was triggered by incubating neutrophils at 37° C. alone (constitutive apoptosis) or with anti-Fas mAb (10 ng/ml; Beckman-Coulter) or gliotoxin ([…]; Sigma) (Ward et al. 1999, J. Biol. Chem. 274:4309-4318) for the indicated times. Neutrophil apoptosis was evaluated by phosphatidylserine externalization after annexin-V and 7-AAD labeling (Kantari et al. 2007, Blood 110:4086-4095); mitochondrial depolarization after DiOC6 labeling (Moriceau et al. 2009, J. Immuno1.182:7254-7263); caspase-3 and caspase-8 activities measured by spectrophotometry (Biovision) in neutrophil lysates. In DMF-differentiated-PLB985 cells, apoptosis was triggered by gliotoxin or by rTRAIL (10 ng/ml; RD System) (Yin et al. 2005, Int. J. Biochem. Cell Biol. 37:1696-1708) and caspase-8 and caspase-9 activities were determined after gating on CD11b^+ cells using the Caspase-Glow® assay (Promega). Apoptosis-induced chromatin condensation and DNA fragmentation were assessed, respectively, after DNA staining with the blue fluorescent dye Hoechst (5 mg/ml) and propidium-iodide staining (Goepel et al. 2004, J. Leukoc. Biol. 75:836-843). Carboxyp21 ([…], SEQ ID NO: 24) corresponding to the p21 carboxy-terminus sequence (residues 141-160) and containing a RYIRS carboxy-terminal extension to facilitate its cell entry was synthesized and purified (Genecust). A modified peptide in which the charged amino acids responsible for its binding to PCNA have been changed according to dynamic simulation studies ([…], SEQ ID NO: 25) served as control. The effect of PS-341 (LC Laboratories) and MG132 were tested on neutrophil apoptosis and PCNA expression as indicated.

Compound: KDGVKFRYIRS [peptide 5]
- Early Apoptosis, Mean [1]: 62.44
- Late Apoptosis, Mean [1]: 12.36
- Total Apoptosis, Mean [1]: 74.36
- Early Apoptosis ([1]; Table VI (peptides 5-9)): 75.21
- Late Apoptosis ([1]; Table VI (peptides 5-9)): 5.39
- Total Apoptosis ([1]; Table VI (peptides 5-9)): 77.67

Compound: KRRQTGETDFDHAKAALIFSRYIRS [modified carboxy-21 peptide, reference compound]
- Apoptotic neutrophils as cells with depolarized mitochondria after DiOC6 labeling [2]: no such activity was observed

Compound: interferon-g: cytokine that prolongs neutrophil survival
- Effect on PCNA degradation in neutrophils [3]: prevented PCNA degradation

Compound: SQTSNVDKEEEAVRYIRS [peptide 6]
- Early Apoptosis, Mean [1]: 62.91
- Late Apoptosis, Mean [1]: 13.11
- Total Apoptosis, Mean [1]: 76.02
- Early Apoptosis ([1]; Table VI (peptides 5-9)): 66.43
- Late Apoptosis ([1]; Table VI (peptides 5-9)): 5.2
- Total Apoptosis ([1]; Table VI (peptides 5-9)): 67.42

Compound: CC(C)C[C@@H](C=O)NC(=O)[C@H](CC(C)C)NC(=O)[C@H](CC(C)C)NC(=O)OCc1ccccc1 [MG132, reference compound] (Cbz-Leu-Leu-Leu-aldehyde)
- Effect of proteasome inhibitors on neutrophil death [4]: significantly inhibited neutrophil death
- Effect of proteasome inhibitors on apoptosis-induced PCNA diminution [3]: reversed the apoptosis-induced PCNA diminution

Compound: KRRQTSMTDFYHSKRRLIFSRYIRS [carboxyp21]
- Apoptotic neutrophils as cells with depolarized mitochondria after DiOC6 labeling [2]: triggered neutrophil apoptosis
- Cells with externalized phosphatidylserine after annexin-V labeling ([4]; 6 h at 37° C., 50 mM peptide): significantly increased percentage of cells with externalized phosphatidylserine
- Effect on G-CSF-induced neutrophil survival ([4]; G-CSF 1000 U/ml, carboxyp21 50 μM, 15 h): significantly inhibited G-CSF-induced neutrophil survival
- PCNA expression in neutrophils exposed to increasing peptide concentrations ([3]; 3 h, increasing carboxyp21 concentrations): dose-dependent decrease of PCNA expression

Compound: MSADVPLRYIRS [peptide 7]
- Early Apoptosis, Mean [1]: 62.60
- Late Apoptosis, Mean [1]: 12.30
- Total Apoptosis, Mean [1]: 74.40
- Early Apoptosis ([1]; Table VI (peptides 5-9)): 66.26
- Late Apoptosis ([1]; Table VI (peptides 5-9)): 2.85
- Total Apoptosis ([1]; Table VI (peptides 5-9)): 64.85

Compound: MKLMDLDVEQLGIPEQEYSRYIRS [peptide 3]
- Pro- or anti-apoptotic activity on neutrophils, conclusion in words [1]: exhibit a pro-apoptotic activity on neutrophils
- Effect on annexin V staining (neutrophil apoptosis), in words ([1]; 500 μM): induced an increase of the annexin V staining
- Early Apoptosis, Mean [1]: 63.00
- Late Apoptosis, Mean [1]: 13.27
- Total Apoptosis, Mean [1]: 76.20
- Early Apoptosis ([1]; Table V (peptides 1-4)): 68.05
- Late Apoptosis ([1]; Table V (peptides 1-4)): 12.63
- Total Apoptosis ([1]; Table V (peptides 1-4)): 78.56

Compound: APNQEKVSDYEMKLMRYIRS [peptide 1]
- Early Apoptosis, Mean [1]: 62.52
- Late Apoptosis, Mean [1]: 11.47
- Total Apoptosis, Mean [1]: 73.67
- Early Apoptosis ([1]; Table V (peptides 1-4)): 65.06
- Late Apoptosis ([1]; Table V (peptides 1-4)): 6.62
- Total Apoptosis ([1]; Table V (peptides 1-4)): 68.74

Compound: CC(C)C[C@H](NC(=O)[C@H](Cc1ccccc1)NC(=O)c1cnccn1)B(O)O [PS-341, reference compound]
- Effect of proteasome inhibitors on neutrophil death [4]: significantly inhibited neutrophil death
- Effect on PCNA degradation after incubation with anti-Fas or gliotoxin ([3]; 6 h at 37° C., PS-341 (1 mM)): reversed PCNA degradation
- Effect of proteasome inhibitors on apoptosis-induced PCNA diminution [3]: reversed the apoptosis-induced PCNA diminution

Compound: YGRKKRRQRRRAPNQEKVSDYEMKLM [peptide 2]
- Early Apoptosis, Mean [1]: 52.29
- Late Apoptosis, Mean [1]: 17.38
- Total Apoptosis, Mean [1]: 69.33
- Early Apoptosis ([1]; Table V (peptides 1-4)): 46.92
- Late Apoptosis ([1]; Table V (peptides 1-4)): 23.97
- Total Apoptosis ([1]; Table V (peptides 1-4)): 68.08

Compound: YGRKKRRQRRRYYLAPKIEDEEGS [peptide 9]
- Pro- or anti-apoptotic activity on neutrophils, conclusion in words [1]: capable of preventing neutrophil apoptosis
- Early Apoptosis, Mean [1]: 50.03
- Late Apoptosis, Mean [1]: 23.90
- Total Apoptosis, Mean [1]: 73.43
- Early Apoptosis ([1]; Table VI (peptides 5-9)): 48.44
- Late Apoptosis ([1]; Table VI (peptides 5-9)): 26.32
- Total Apoptosis ([1]; Table VI (peptides 5-9)): 71.84

Compound: YYLAPKIEDEEGSRYIRS [peptide 8]
- Pro- or anti-apoptotic activity on neutrophils, conclusion in words [1]: significant anti-apoptotic activity; also recorded: capable of preventing neutrophil apoptosis
- Early Apoptosis, Mean [1]: 40.67
- Late Apoptosis, Mean [1]: 6.23
- Total Apoptosis, Mean [1]: 46.43
- Early Apoptosis ([1]; Table VI (peptides 5-9)): 48.94
- Late Apoptosis ([1]; Table VI (peptides 5-9)): 8.99
- Total Apoptosis ([1]; Table VI (peptides 5-9)): 48.77

Compound: YGRKKRRQRRRMKLMDLDVEQLGIPEQEYS [peptide 4]
- Pro- or anti-apoptotic activity on neutrophils, conclusion in words [1]: exhibit a pro-apoptotic activity on neutrophils
- Effect on annexin V staining (neutrophil apoptosis), in words ([1]; 200 μM): induced an increase of the annexin V staining
- Pro-apoptotic activity on late apoptosis, in words ([1]; 200 μM, Table IV): particularly obvious on late apoptosis
- Early Apoptosis, Mean [1]: 62.34
- Late Apoptosis, Mean [1]: 27.88
- Total Apoptosis, Mean [1]: 89.83
- Early Apoptosis ([1]; Table V (peptides 1-4)): 53.11
- Late Apoptosis ([1]; Table V (peptides 1-4)): 33.74
- Total Apoptosis ([1]; Table V (peptides 1-4)): 82.84
